In one assay the target is hepatitis C virus RNA dependant polymerase (NS5B) (Hepatitis C virus genotype 1b, UniProt P26663). Briefly: Inhibition of NS5B RNA dependent RNA polymerase activity. The format is biochemical. As to conditions: Table 1; HCV NS5B polymerase. As for the experimental part: A suitable assay is described in the examples.
hepatitis C virus RNA dependant polymerase (NS5B), sequence (P26663 2420-3010): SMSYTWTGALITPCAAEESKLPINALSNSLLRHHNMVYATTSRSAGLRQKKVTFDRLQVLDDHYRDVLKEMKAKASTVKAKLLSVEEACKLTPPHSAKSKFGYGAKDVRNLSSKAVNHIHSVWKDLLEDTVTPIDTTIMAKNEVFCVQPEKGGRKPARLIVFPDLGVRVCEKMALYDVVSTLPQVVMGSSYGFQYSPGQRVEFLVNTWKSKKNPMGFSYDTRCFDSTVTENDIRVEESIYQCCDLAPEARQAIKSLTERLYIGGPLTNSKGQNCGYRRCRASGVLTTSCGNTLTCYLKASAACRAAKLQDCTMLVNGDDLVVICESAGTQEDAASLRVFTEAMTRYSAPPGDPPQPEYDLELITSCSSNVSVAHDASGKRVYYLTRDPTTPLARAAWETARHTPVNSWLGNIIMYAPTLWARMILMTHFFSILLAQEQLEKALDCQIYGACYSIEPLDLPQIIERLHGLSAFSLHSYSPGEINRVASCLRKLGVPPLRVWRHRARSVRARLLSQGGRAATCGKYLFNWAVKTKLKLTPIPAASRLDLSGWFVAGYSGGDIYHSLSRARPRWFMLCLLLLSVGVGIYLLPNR
Inhibition of NS5B RNA Dependent RNA Polymerase Activity
The compounds of the invention were tested for inhibitory activity against the hepatitis C virus RNA dependant polymerase (NS5B), according to protocol described in WO 03/010141
The IC50 is the concentration that inhibits the measured activity by half. Low values mean higher potency, high ones lower potency. With `O=C(O)c1ccc2c(C3CCCCC3)c(-c3ccc(Br)cn3)n(CC(=O)N3CCC[C@H]3C(=O)O)c2c1` [Example 1137], the IC50 is 200 to 1000 nM. On the same count and under the same terms, next, `CN(CC(=O)O)C(=O)Cn1c(-c2ccc(Br)cn2)c(C2CCCCC2)c2ccc(C(=O)O)cc21` [Example 1138]: 200 to 1000 nM. Same read-out and setting: next, `O=C(O)CN1CCN(C(=O)Cn2c(-c3ccc(Br)cn3)c(C3CCCCC3)c3ccc(C(=O)O)cc32)CC1` [Example 1139]: < 200 nM.

In the case of `O=C(Cn1c(-c2ccc(Br)cn2)c(C2CCCCC2)c2ccc(C(=O)O)cc21)N[C@@H](Cc1c[nH]c2cc(O)ccc12)C(=O)O` [Example 1140], the concentration for half-maximal inhibition (IC50) was in the range of 200 to 1000 nM.

Turning to `O=C(Cn1c(-c2ccc(Br)cn2)c(C2CCCCC2)c2ccc(C(=O)O)cc21)NNC(=O)NC[C@H]1CC[C@H](C(=O)O)CC1` [Example 1141], the IC50 lay in the range of 200 to 1000 nM.

`CN(C)C(=O)Cn1c(-c2ccccn2)c(C2CCCCC2)c2ccc(C(=O)O)cc21` [Example 1142] returned an IC50 of 200 to 1000 nM.

`CNC(=O)Cn1c(-c2ccccn2)c(C2CCCCC2)c2ccc(C(=O)O)cc21` [Example 1143] registered an IC50 of 1000 to 10000 nM.

Still in this assay, the particulars now being: Table 2; HCV NS5B polymerase.
As for `O=C(NS(=O)(=O)c1ccccc1)c1ccc2c(C3CCCCC3)c(-c3ccoc3)n(CC(=O)N3CCOCC3)c2c1` [Example 2001], the IC50 was < 200 nM.

In the case of `CS(=O)(=O)NC(=O)c1ccc2c(C3CCCCC3)c(-c3ccoc3)n(CC(=O)N3CCOCC3)c2c1` [Example 2002], the IC50 is < 200 nM. Still for that read-out and setting: the value for `O=C(NS(=O)(=O)Cc1ccccc1)c1ccc2c(C3CCCCC3)c(-c3ccoc3)n(CC(=O)N3CCOCC3)c2c1` [Example 2003] was < 200 nM; that for `O=C(NS(=O)(=O)c1ccc(Cl)s1)c1ccc2c(C3CCCCC3)c(-c3ccoc3)n(CC(=O)N3CCOCC3)c2c1` [Example 2004] was < 200 nM; that for `O=C(NS(=O)(=O)C(F)(F)F)c1ccc2c(C3CCCCC3)c(-c3ccoc3)n(CC(=O)N3CCOCC3)c2c1` [Example 2005] was < 200 nM. In the case of `COC(=O)c1ccccc1S(=O)(=O)NC(=O)c1ccc2c(C3CCCCC3)c(-c3ccoc3)n(CC(=O)N3CCOCC3)c2c1` [Example 2006], the IC50 was < 200 nM. On the same count and under the same terms, next, `O=C(NS(=O)(=O)c1ccc2ccccc2c1)c1ccc2c(C3CCCCC3)c(-c3ccoc3)n(CC(=O)N3CCOCC3)c2c1` [Example 2007]: < 200 nM; `O=C(NS(=O)(=O)c1ccc(Br)cc1)c1ccc2c(C3CCCCC3)c(-c3ccoc3)n(CC(=O)N3CCOCC3)c2c1` [Example 2008]: < 200 nM. The same measure, in the same setting: next, `COc1ccc(S(=O)(=O)NC(=O)c2ccc3c(C4CCCCC4)c(-c4ccoc4)n(CC(=O)N4CCOCC4)c3c2)cc1` [Example 2009]: < 200 nM; `O=C(NS(=O)(=O)c1cccc(Cl)c1)c1ccc2c(C3CCCCC3)c(-c3ccoc3)n(CC(=O)N3CCOCC3)c2c1` [Example 2010]: < 200 nM; `O=C(NS(=O)(=O)c1ccccc1Br)c1ccc2c(C3CCCCC3)c(-c3ccoc3)n(CC(=O)N3CCOCC3)c2c1` [Example 2011]: < 200 nM. As for `O=C(NS(=O)(=O)c1ccccc1Cl)c1ccc2c(C3CCCCC3)c(-c3ccoc3)n(CC(=O)N3CCOCC3)c2c1` [Example 2012], the half-maximal inhibitory concentration (IC50) was < 200 nM. Regarding `O=C(NS(=O)(=O)c1ccc(OC(F)(F)F)cc1)c1ccc2c(C3CCCCC3)c(-c3ccoc3)n(CC(=O)N3CCOCC3)c2c1` [Example 2013], the IC50 is < 200 nM. As to `O=C(NS(=O)(=O)c1cc(F)ccc1F)c1ccc2c(C3CCCCC3)c(-c3ccoc3)n(CC(=O)N3CCOCC3)c2c1` [Example 2014], the IC50 is < 200 nM. As for `O=C(NS(=O)(=O)c1ccc(F)cc1)c1ccc2c(C3CCCCC3)c(-c3ccoc3)n(CC(=O)N3CCOCC3)c2c1` [Example 2015], the 50% inhibitory concentration (IC50) is < 200 nM. Same read-out and setting: next, `Cc1ccccc1S(=O)(=O)NC(=O)c1ccc2c(C3CCCCC3)c(-c3ccoc3)n(CC(=O)N3CCOCC3)c2c1` [Example 2016]: < 200 nM; `O=C(NS(=O)(=O)c1ccc([N+](=O)[O-])cc1)c1ccc2c(C3CCCCC3)c(-c3ccoc3)n(CC(=O)N3CCOCC3)c2c1` [Example 2018]: < 200 nM; `O=C(NS(=O)(=O)c1ccc(Cl)cc1)c1ccc2c(C3CCCCC3)c(-c3ccoc3)n(CC(=O)N3CCOCC3)c2c1` [Example 2019]: < 200 nM. Still for that read-out and setting: next, `Cc1c(S(=O)(=O)NC(=O)c2ccc3c(C4CCCCC4)c(-c4ccoc4)n(CC(=O)N4CCOCC4)c3c2)sc2ccc(F)cc12` [Example 2020]: < 200 nM. With `Cc1ccc(S(=O)(=O)NC(=O)c2ccc3c(C4CCCCC4)c(-c4ccoc4)n(CC(=O)N4CCOCC4)c3c2)cc1` [Example 2022], the IC50 was < 200 nM. Still for that read-out and setting: next, `CN(C(=O)c1ccc2c(C3CCCCC3)c(-c3ccoc3)n(CC(=O)N3CCOCC3)c2c1)S(=O)(=O)c1ccccc1` [Example 2023]: 1000 to 10000 nM. As to `O=C(NS(=O)(=O)c1cccc2cccnc12)c1ccc2c(C3CCCCC3)c(-c3ccoc3)n(CC(=O)N3CCOCC3)c2c1` [Example 2024], the half-maximal inhibitory concentration (IC50) was < 200 nM.

With `CC(C)(C)c1ccc(S(=O)(=O)NC(=O)c2ccc3c(C4CCCCC4)c(-c4ccoc4)n(CC(=O)N4CCOCC4)c3c2)cc1` [Example 2025], the IC50 is < 200 nM. `O=C(NS(=O)(=O)C1CC1)c1ccc2c(C3CCCCC3)c(-c3ccoc3)n(CC(=O)N3CCOCC3)c2c1` [Example 2026]: the IC50 is < 200 nM. The same measure, in the same setting: the value for `O=C(NS(=O)(=O)CC(F)(F)F)c1ccc2c(C3CCCCC3)c(-c3ccoc3)n(CC(=O)N3CCOCC3)c2c1` [Example 2027] was < 200 nM; that for `O=C(NS(=O)(=O)c1c(Cl)sc(Cl)c1Br)c1ccc2c(C3CCCCC3)c(-c3ccoc3)n(CC(=O)N3CCOCC3)c2c1` [Example 2029] was < 200 nM; that for `O=C(NS(=O)(=O)c1cc(Cl)sc1Cl)c1ccc2c(C3CCCCC3)c(-c3ccoc3)n(CC(=O)N3CCOCC3)c2c1` [Example 2030] was < 200 nM. Still for that read-out and setting: next, `N#Cc1ccccc1S(=O)(=O)NC(=O)c1ccc2c(C3CCCCC3)c(-c3ccoc3)n(CC(=O)N3CCOCC3)c2c1` [Example 2032]: 200 to 1000 nM; `Cc1nn(C)c(Cl)c1S(=O)(=O)NC(=O)c1ccc2c(C3CCCCC3)c(-c3ccoc3)n(CC(=O)N3CCOCC3)c2c1` [Example 2033]: < 200 nM; `Cc1noc(C)c1S(=O)(=O)NC(=O)c1ccc2c(C3CCCCC3)c(-c3ccoc3)n(CC(=O)N3CCOCC3)c2c1` [Example 2034]: < 200 nM. Still for that read-out and setting: the value for `O=C(NS(=O)(=O)c1cccc2nsnc12)c1ccc2c(C3CCCCC3)c(-c3ccoc3)n(CC(=O)N3CCOCC3)c2c1` [Example 2035] was < 200 nM; that for `O=C(NS(=O)(=O)c1c(F)cccc1F)c1ccc2c(C3CCCCC3)c(-c3ccoc3)n(CC(=O)N3CCOCC3)c2c1` [Example 2036] was < 200 nM. As for `O=C(NS(=O)(=O)c1c(Cl)nc2sccn12)c1ccc2c(C3CCCCC3)c(-c3ccoc3)n(CC(=O)N3CCOCC3)c2c1` [Example 2037], the concentration for half-maximal inhibition (IC50) is < 200 nM. Same read-out and setting: the value for `CS(=O)(=O)c1ccccc1S(=O)(=O)NC(=O)c1ccc2c(C3CCCCC3)c(-c3ccoc3)n(CC(=O)N3CCOCC3)c2c1` [Example 2038] was < 200 nM; that for `O=C(NS(=O)(=O)c1cccc2cnccc12)c1ccc2c(C3CCCCC3)c(-c3ccoc3)n(CC(=O)N3CCOCC3)c2c1` [Example 2039] was < 200 nM; that for `COc1cc(C)ccc1S(=O)(=O)NC(=O)c1ccc2c(C3CCCCC3)c(-c3ccoc3)n(CC(=O)N3CCOCC3)c2c1` [Example 2040] was < 200 nM.

Take `Cc1c(S(=O)(=O)NC(=O)c2ccc3c(C4CCCCC4)c(-c4ccoc4)n(CC(=O)N4CCOCC4)c3c2)cnn1-c1ccccc1` [Example 2042]: the IC50 was < 200 nM. On the same count and under the same terms, next, `CC(C)c1cc(C(C)C)c(S(=O)(=O)NC(=O)c2ccc3c(C4CCCCC4)c(-c4ccoc4)n(CC(=O)N4CCOCC4)c3c2)c(C(C)C)c1` [Example 2043]: 200 to 1000 nM. On the same count and under the same terms, next, `Cc1cc(C)c(S(=O)(=O)NC(=O)c2ccc3c(C4CCCCC4)c(-c4ccoc4)n(CC(=O)N4CCOCC4)c3c2)c(C)c1` [Example 2044]: < 200 nM. On the same count and under the same terms, next, `O=C(NS(=O)(=O)C(Cl)(Cl)Cl)c1ccc2c(C3CCCCC3)c(-c3ccoc3)n(CC(=O)N3CCOCC3)c2c1` [Example 2045]: < 200 nM.

The assay is the same for the next values; noted with them: Table 3; HCV NS5B polymerase.
`Nc1nc(-c2ccc(NC(=O)C3(NC(=O)c4ccc5c(C6CCCC6)c(-c6ccoc6)n(CC(=O)N6CCOCC6)c5c4)CCCNC3)cc2)cs1` (centres unmarked) [Example 3001]: the IC50 was < 200 nM.

For the compound `NC(=O)[C@]1(NC(=O)c2ccc3c(C4CCCCC4)c(-c4ccoc4)n(CC(=O)N4CCOCC4)c3c2)CCNC1` [Example 3004], the IC50 was < 200 nM. The same measure, in the same setting: the value for `CC(C)(NC(=O)Cn1c(-c2ccoc2)c(C2CCCCC2)c2ccc(C(=O)NC(C)(C)C(=O)Nc3ccc(/C=C/C(=O)O)cc3)cc21)C(=O)Nc1ccc(/C=C/C(=O)O)cc1` [Example 3005] was < 200 nM; that for `CN1CCN(C(=O)Cn2c(-c3ccccn3)c(C3CCCCC3)c3ccc(C(=O)NC(C)(C)C(=O)Nc4ccc(/C=C/C(=O)O)cc4)cc32)CC1` [Example 3006] was < 200 nM. Same read-out and setting: next, `CN1CCN(C(=O)Cn2c(-c3ccccn3)c(C3CCCCC3)c3ccc(C(=O)NC4(C(=O)Nc5ccc(/C=C/C(=O)O)cc5)CCC4)cc32)CC1` [Example 3007]: < 200 nM.

Regarding `O=C(O)/C=C/c1ccc(NC(=O)C2(NC(=O)c3ccc4c(C5CCCCC5)c(-c5ccccn5)n(CC(=O)N5CCCC5)c4c3)CCC2)cc1` [Example 3008], the IC50 was < 200 nM. Same read-out and setting: the value for `O=C(O)/C=C/c1ccc(NC(=O)C2(NC(=O)c3ccc4c(C5CCCCC5)c(-c5ccccn5)n(CC(=O)N5CCCCC5)c4c3)CCC2)cc1` [Example 3009] was < 200 nM; that for `O=C(O)/C=C/c1ccc(NC(=O)C2(NC(=O)c3ccc4c(C5CCCC5)c(-c5ccccn5)n(CC(=O)N5CCCC5)c4c3)CCC2)cc1` [Example 3010] was < 200 nM. Still for that read-out and setting: next, `O=C(O)C=Cc1ccc(NC(=O)C2(NC(=O)c3ccc4c(C5CCCC5)c(-c5ccccn5)n(CC(=O)N5CCCCC5)c4c3)CCC2)cc1` [Example 3011]: < 200 nM.
